How the values were obtained:
[1] = Cytotoxicity screening (MTS), BSMC; type: cell-based; conditions: human, bronchial smooth muscle cells (BSMC)
Description: Bronchial smooth muscle cells (BSMC, Lonza CC-2576), small airway epithelial cells (SAEC, Lonza CC-2547), or HepG2 cells (ATCC HB-8065) were seeded in 96-well plates at a density of 25,000 per well. Culture of these cells throughout the protocol utilized incubation at 37 °C, 5% CO2 in a humidified atmosphere, with BSMC and SAEC cells cultured in cell-specific media (Lonza) and HepG2 cells cultured in RPMI 1640 medium containing Glutamax (Gibco) and 10% fetal bovine serum. Plates containing BSMC cells were collagen coated to assist with cell adhesion. Following an overnight settling period, media was replaced with fresh media, with, or without, compound. Compound concentrations tested were 1, 3, 10, 30, and 100 μM, in duplicate. The cells were incubated with compound for 24 h. Control (1% DMSO) and positive standards terfenadine- and salmeterol-treated groups were included for both cell lines. […] The reaction was stopped with 12.5 μL of 10% SDS, plates briefly shaken, and absorbance (490 nm) read using a Spectramax M5e plate reader (Molecular Devices). Percentages of viable cells were calculated as: (test sample Abs 490 nM-mean blank Abs 490 nm)/(mean control Abs 490 nM-mean blank Abs 490 nm) × 100.

purified LasB = target: T1, purified LasB (Pseudomonas aeruginosa, UniProt P14756); experiment: Inhibition of LasB-mediated proteolysis of pro-IL-1β-derived peptide Sub115; type: biochemical, P. aeruginosa
T1 construct: The mature LasB protein is a 33 kDa metalloprotease, which is secreted from P. aeruginosa; host or cells: P. aeruginosa PAO1 (native secretion, culture supernatant)
T1 sequence (P14756 198-498): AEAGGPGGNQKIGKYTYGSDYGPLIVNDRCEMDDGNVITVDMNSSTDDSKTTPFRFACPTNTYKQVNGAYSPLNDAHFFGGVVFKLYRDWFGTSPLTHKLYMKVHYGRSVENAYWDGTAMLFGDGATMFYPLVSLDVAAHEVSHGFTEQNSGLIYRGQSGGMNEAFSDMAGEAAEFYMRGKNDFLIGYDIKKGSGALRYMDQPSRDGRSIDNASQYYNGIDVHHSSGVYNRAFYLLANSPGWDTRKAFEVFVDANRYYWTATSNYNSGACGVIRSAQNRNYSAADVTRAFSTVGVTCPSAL
Source text: Previous studies have shown that LasB cleaves the N-terminal domain of pro-IL-1β, thereby generating a mature active form of IL-1β in a manner analogous to the normal host activation mechanism involving cleavage by caspases.[16] This activity can be followed spectrophotometrically via hydrolysis of an internally quenched fluorescent peptide Sub115 (McA-HDAPVRSLN-K-Dnp), which incorporates the LasB cleavage site from pro-IL-1β. To determine whether compounds 12 and 16 were able to inhibit this activity, Sub115 hydrolysis was measured in the presence of varying concentrations of substrate and inhibitors (Figure 2B). […] These values, although still submicromolar, were higher than those determined with the Abz-AGLA-Nba hydrolysis assay, perhaps due to the different ion composition of the respective assay buffers.
The peptide HDAPVRSLN, corresponding to amino acids 115–123 of the reference human pro-IL-1β sequence (UniProt: PO1584), was labeled on the N-terminus with Mca and on the C-terminus with Lys-Dnp (CPC Scientific) to generate an internally quenched fluorescent peptide (Sub115). […] The reaction was continuously monitored using a Victor multimode plate reader (PerkinElmer) with excitation at 355 nm and emission at 450 nm, and initial kinetic velocity was calculated. Inhibitory constants (Ki) were determined (two independent replicates) using a competitive inhibitor model.

| Compound | IC50 at 24 h [1] [nM] | Ki (purified LasB) [nM] |
| --- | --- | --- |
| COc1cc2sc(CNC(=O)C3(CC(=O)O)Cc4ccccc4C3)nc2cc1OCCC[N+](C)(C)C [Compound 12] | > 100000 | 704 |
| COc1cc2sc(CNC(=O)C3(CC(=O)O)Cc4cc(F)c(F)cc4C3)nc2cc1OCCC[N+](C)(CCO)CCO [Compound 16] | > 100000 | 475 |

Reference: PMC9926489, “Chemical Optimization of Selective Pseudomonas aeruginosa LasB Elastase Inhibitors and Their Impact on LasB-Mediated Activation of IL-1β in Cellular and Animal Infection Models” (ACS Infectious Diseases, 2023)
